Test results from US7282608B2, “Inhibitors of histone deacetylase” (Methylgene, Inc., priority 2002, dated 2007).
Like-named read-outs stand apart in the source and are kept apart here.

What was measured:
HCT116 cells = test: MTT assay; type: cell-based; settings: Homo sapiens, HCT-116, 72 hours
Procedure: HCT116 cells (2000/well) were plated into 96-well tissue culture plates one day before compound treatment. Compounds at various concentrations were added to the cells. The cells were incubated for 72 hours at 37° C. in 5% CO2 incubator. MTT (3-[4,5-dimethylthiazol-2-yl]-2,5 diphenyl tetrazolium bromide, Sigma) was added at a final concentration of 0.5 mg/ml and incubated with the cells for 4 hours before one volume of solubilization buffer (50% N,N-dimethylformamide, 20% SDS, pH 4.7) was added onto the cultured cells. After overnight incubation, solubilized dye was quantified by colorimetric reading at […] using a reference at […] using an MR700 plate reader (Dynatech Laboratories Inc.). OD values were converted to cell numbers according to a standard growth curve of the relevant cell line. The concentration which reduces cell numbers to 50% of that of solvent treated cells is determined as MTT IC50. IC50 values for representative compounds are presented in the fourth column of Tables 7–10.

[1] = system: HCT116 human colorectal carcinoma cells; test: Antineoplastic effects on human tumor xenografts in vivo; set-up: species or system CD1 nude mice; settings: HCT116 xenograft, daily injection i.v., s.c. or i.p., starting dose 10 mg/kg
Procedure: Eight to ten week old female CD1 nude mice (Taconic Labs, Great Barrington, N.Y.) were injected subcutaneously in the flank area with 2×10^6 preconditioned HCT116 human colorectal carcinoma cells. Preconditioning of these cells was done by a minimum of three consecutive tumor transplantations in the same strain of nude mice. Subsequently, tumor fragments of approximately 30 mgs were excised and implanted subcutaneously in mice, in the left flank area, under Forene anesthesia (Abbott Labs, Geneva, Switzerland). When the tumors reached a mean volume of 100 mm^3, the mice were treated intravenously, subcutaneously, or intraperitoneally by daily injection, with a solution of the histone deacetylase inhibitor in an appropriate vehicle, such as PBS, DMSO/water, or Tween 80/water, at a starting dose of 10 mg/kg. The optimal dose of the HDAC inhibitor was established by dose response experiments according to standard protocols. Tumor volume was calculated every second day post infusion according to standard methods (e.g., Meyer et al., Int. J. Cancer 43: 851–856 (1989)).

[2] = system: acetylated histone H-4 in T24 human bladder cancer cells; test: Histone H4 acetylation in whole cells by immunoblots; type: cell-based; settings: 16 h, read-out: H4 Ac (T24) EC50
Procedure: T24 human bladder cancer cells growing in culture were incubated with HDAC inhibitors for 16 h. Histones were extracted from the cells after the culture period as described by M. Yoshida et al. (J. Biol. Chem. 265(28): 17174–17179 (1990)). […] of total histone protein was loaded onto SDS/PAGE and transferred to nitrocellulose membranes. Membranes were probed with polyclonal antibodies specific for acetylated histone H-4 (Upstate Biotech Inc.), followed by horse radish peroxidase conjugated secondary antibodies (Sigma). Enhanced Chemiluminescence (ECL) (Amersham) detection was performed using Kodak films (Eastman Kodak). Acetylated H-4 signal was quantified by densitometry. Representative data are presented in the fifth column of Table 7–10. Data are presented as the concentration effective for […] the acetylated H-4 signal by 50% (EC50).

[3] = target: T1, cloned recombinant human HDAC-1 (Homo sapiens, UniProt Q13547); test: Human HDAC-1 Assay 1: [3H]-acetylated histone deacetylase assay; type: biochemical; settings: Assay 1, unbracketed data; [3H]-acetylated histone substrate, 10 min at 37° C.
T1 construct: made in house; host or cells: Baculovirus insect cell expression system
Procedure: HDAC inhibitors were screened against a cloned recombinant human HDAC-1 enzyme expressed and purified from a Baculovirus insect cell expression system. For deacetylase assays, 20,000 cpm of the [^3H]-metabolically labeled acetylated histone substrate (M. Yoshida et al., J. Biol. Chem. 265(28): 17174–17179 (1990)) was incubated with 30 μg of the cloned recombinant hHDAC-1 for 10 minutes at 37° C. The reaction was stopped by adding acetic acid (0.04 M, final concentration) and HCl (250 mM, final concentration). […] For inhibition studies, the enzyme was preincubated with compounds at 4° C. for 30 minutes prior to initiation of the enzymatic assay. IC50 values for HDAC enzyme inhibitors were determined by performing dose response curves with individual compounds and determining the concentration of inhibitor producing fifty percent of the maximal inhibition. IC50 values for representative compounds assayed using this procedure are presented in the third column of Tables 7–10 (excepting bracketed data).

Human HDAC-1 = Human HDAC-1 (Homo sapiens, UniProt Q13547); test: Human HDAC-1 Assay 2: Boc-Lys(Ac)-AMC fluorescence assay; type: biochemical; settings: Assay 2, bracketed [ ] data; Boc-Lys(Ac)-AMC substrate
Procedure: In the alternative, the following protocol was used to assay the compounds of the invention. In the assay, the buffer used was 25 mM HEPES, pH 8.0, 137 mM NaCl, 2.7 mM KCl, 1 mM MgCl2 and the subtrate was Boc-Lys(Ac)-AMC in a 50 mM stock solution in DMSO. The enzyme stock solution was 4.08 μg/mL in buffer.
The compounds were pre-incubated (2 μl in DMSO diluted to 13 μl in buffer for transfer to assay plate) with enzyme (20 μl of 4.08 μg/ml) for 10 minutes at room temperature (35 μl pre-incubation volume). The mixture was pre-incubated for 5 minutes at room temperature. The reaction was started by bringing the temperature to 37° C. and adding […] substrate. Total reaction volume was 50 μl. The reaction was stopped after 20 minutes by addition of 50 μl developer, prepared as directed by Biomol (Fluor-de-Lys developer, Cat. # KI-105). A plate was incubated in the dark for 10 minutes at room temperature before reading (λEX=360 nm, λEx=470 nm, Cutoff filter at 435 nm).
IC50 values for representative compounds assayed using this procedure are presented in the third column of Table 9 (bracketed [ ] data).

T1 sequence (Q13547 whole entry): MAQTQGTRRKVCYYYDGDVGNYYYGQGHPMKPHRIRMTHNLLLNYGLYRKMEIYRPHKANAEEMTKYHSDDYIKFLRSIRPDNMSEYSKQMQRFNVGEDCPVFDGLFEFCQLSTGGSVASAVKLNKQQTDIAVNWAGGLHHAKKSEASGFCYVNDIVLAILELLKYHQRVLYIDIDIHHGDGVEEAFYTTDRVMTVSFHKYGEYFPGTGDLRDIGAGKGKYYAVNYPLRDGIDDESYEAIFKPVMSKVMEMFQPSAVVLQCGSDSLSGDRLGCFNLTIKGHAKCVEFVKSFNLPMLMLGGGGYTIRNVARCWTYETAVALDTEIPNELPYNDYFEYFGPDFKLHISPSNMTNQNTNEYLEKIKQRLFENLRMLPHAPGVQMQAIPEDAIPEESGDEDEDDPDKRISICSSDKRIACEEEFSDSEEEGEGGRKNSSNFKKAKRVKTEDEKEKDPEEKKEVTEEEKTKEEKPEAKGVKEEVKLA
Human HDAC-1, sequence (Q13547 whole entry): as above

| Structure (SMILES) | IC50 (HCT116 cells) | EC50 ([2]; immunoblot densitometry) | IC50 [3] | IC50 (Human HDAC-1) | EC50 ([2]; code 9999 of the footnote) | reduction in tumor weight and volume relative to vehicle controls [1] |
| --- | --- | --- | --- | --- | --- | --- |
| Nc1ccccc1NC(=O)c1ccc(/C=C/CNc2nccc(-c3cccnc3)n2)cc1 [XVj, N-(2-Amino-phenyl)-4-[3-(4-pyridin-3-yl-pyrimidin-2-ylamino)-propenyl]-benzamide] | 200 nM | < 1000 nM | 2000 nM |  |  | significant reduction in tumor weight and volume |
| Nc1ccccc1NC(=O)c1ccc(/C=C/CNC2Cc3ccccc3C2)cc1 [XXXe, N-(2-Amino-phenyl)-4-[3-(indan-2-ylamino)-propenyl]-benzamide] | 2000 nM |  |  | 790 nM |  |  |
| Nc1ccccc1NC(=O)c1ccc(C(=O)/C=C/c2ccc(OC(F)F)c(OC3CC3)c2)cc1 [Ig, N-(2-Amino-phenyl)-4-[3-(3-cyclopropoxy-4-difluoromethoxy-phenyl)-acryloyl]-benzamide] | 700 nM |  | 3000 nM |  | > 25000 nM |  |
| COc1ccc(NC/C=C/c2ccc(C(=O)Nc3ccccc3N)cc2)cc1OC [XVi, N-(2-Amino-phenyl)-4-[3-(3,4-dimethoxy-phenylamino)-propenyl]-benzamide] | 1000 nM | 4000 nM | 1000 nM |  |  |  |
| Nc1ccccc1NC(=O)c1ccc(/C=C/CNc2nc3ccccc3s2)cc1 [XVc, N-(2-Amino-phenyl)-4-[3-(benzothiazol-2-ylamino)-propenyl]-benzamide] | 1000 nM | < 1000 nM | 800 nM |  |  |  |
| Nc1ccccc1NC(=O)c1ccc(/C=C/CNCc2cccnc2)cc1 [XVh, N-(2-Amino-phenyl)-4-{3-[(pyridin-3-ylmethyl)-amino]propenyl}-benzamide] | 700 nM | 2000 nM | 4000 nM |  |  |  |
| Nc1ccccc1NC(=O)c1ccc(/C=C/CN2CCN(c3ccccn3)CC2)cc1 [XXXc, N-(2-Amino-phenyl)-4-[3-(4-pyridin-2-yl-piperazin-1-yl)-propenyl]-benzamide] | 500 nM | 2000 nM |  | 820 nM |  |  |
| COc1cc(C)nc(NC/C=C/c2ccc(C(=O)Nc3ccccc3N)cc2)n1 [XVd, N-(2-Amino-phenyl)-4-[3-(4-methoxy-6-methyl-pyrimidin-2-ylamino)-propenyl]-benzamide] | 300 nM | 3000 nM | 4000 nM |  |  |  |
| CSc1nc(NC/C=C/c2ccc(C(=O)Nc3ccccc3N)cc2)n[nH]1 [XVe, N-(2-Amino-phenyl)-4-[3-(5-methylsulfanyl-1H-[1,2,4]triazol-3-ylamino)-propenyl]-benzamide] | 500 nM | 1000 nM | 2000 nM |  |  |  |
| COc1cc(CNC(=O)/C=C/c2ccc(C(=O)Nc3ccccc3N)cc2)cc(OC)c1OC [Vc, N-(2-Amino-phenyl)-4-[2-(3,4,5-trimethoxy-benzylcarbamoyl)-vinyl]-benzamide] | 900 nM | 2000 nM | 3000 nM |  |  |  |
| COc1cc(/C=C/C(=O)c2ccc(C(=O)Nc3ccccc3N)cc2)cc(OC)c1OC [Id, N-(2-Amino-phenyl)-4-[3-(3,4,5-trimethoxy-phenyl)-acryloyl]-benzamide] | 600 nM | 3000 nM | 3000 nM |  |  |  |

More lines, main results first:

| IC50 (HCT116 cells) | EC50 ([2]; immunoblot densitometry) | IC50 [3] | IC50 (Human HDAC-1) | EC50 ([2]; code 9999 of the footnote) | Structure (SMILES) | reduction in tumor weight and volume relative to vehicle controls [1] |
| --- | --- | --- | --- | --- | --- | --- |
| 70 nM | 1000 nM | 3000 nM |  |  | Nc1ccccc1NC(=O)c1ccc(/C=C/C(=O)NCc2cccnc2)cc1 [Vb, N-(2-Amino-phenyl)-4-{2-[(pyridin-3-ylmethyl)-carbamoyl]-vinyl}-benzamide] |  |
| 800 nM | 5000 nM | 3000 nM |  |  | COc1ccccc1C(=O)/C=C/c1ccc(C(=O)Nc2ccccc2N)cc1 [XXIVe, N-(2-Amino-phenyl)-4-[3-(2-methoxy-phenyl)-3-oxo-propenyl]-benzamide] |  |
| 1000 nM | 3000 nM | 4000 nM |  |  | Nc1ccccc1NC(=O)c1ccc(/C=C/C(=O)NCCc2ccccn2)cc1 [Vi, N-(2-Amino-phenyl)-4-[2-(2-pyridin-2-yl-ethylcarbamoyl)-vinyl]-benzamide] |  |
| 700 nM | 5000 nM | 4000 nM |  |  | COc1ccc(/C=C/C(=O)c2ccc(C(=O)Nc3ccccc3N)cc2)cc1OC1CCCC1 [Ij, N-(2-Amino-phenyl)-4-[3-(3-cyclopentyloxy-4-methoxy-phenyl)-acryloyl]-benzamide] |  |
| 1000 nM | 4000 nM |  | 260 nM |  | Nc1ccccc1NC(=O)c1ccc(/C=C/CN2Cc3ccccc3C2)cc1 [XXXa, N-(2-Amino-phenyl)-4-[3-(1,3-dihydro-isoindol-2-yl)-propenyl]-benzamide] |  |
| 2000 nM |  |  | 170 nM |  | CN(C/C=C/c1ccc(C(=O)Nc2ccccc2N)cc1)Cc1ccccc1 [XXXd, N-(2-Amino-phenyl)-4-[3-(benzyl-methyl-amino)-propenyl]-benzamide] |  |
| 400 nM | 3000 nM | 4000 nM |  |  | Nc1ccccc1NC(=O)c1ccc(/C=C/C(=O)c2ccccc2)cc1 [XXIVa, N-(2-Amino-phenyl)-4-(3-oxo-3-phenyl-propenyl)-benzamide] |  |
